Assay results reported in patent US12392782B2, “Characterization of protein binding to per- and polyfluoroalkyl substances” (North Carolina State University, priority 2021, dated 2025).
Read-outs that look alike come from different tables or passages of the source. One block for each compound: values may come before it.

Legend:
[1] = target: HSA (Homo sapiens, UniProt P02768); assay: Differential scanning fluorimetry (DSF) thermal shift assay of HSA binding; conditions: for bound by HSA: result in words
Sequence of HSA (P02768 25-609): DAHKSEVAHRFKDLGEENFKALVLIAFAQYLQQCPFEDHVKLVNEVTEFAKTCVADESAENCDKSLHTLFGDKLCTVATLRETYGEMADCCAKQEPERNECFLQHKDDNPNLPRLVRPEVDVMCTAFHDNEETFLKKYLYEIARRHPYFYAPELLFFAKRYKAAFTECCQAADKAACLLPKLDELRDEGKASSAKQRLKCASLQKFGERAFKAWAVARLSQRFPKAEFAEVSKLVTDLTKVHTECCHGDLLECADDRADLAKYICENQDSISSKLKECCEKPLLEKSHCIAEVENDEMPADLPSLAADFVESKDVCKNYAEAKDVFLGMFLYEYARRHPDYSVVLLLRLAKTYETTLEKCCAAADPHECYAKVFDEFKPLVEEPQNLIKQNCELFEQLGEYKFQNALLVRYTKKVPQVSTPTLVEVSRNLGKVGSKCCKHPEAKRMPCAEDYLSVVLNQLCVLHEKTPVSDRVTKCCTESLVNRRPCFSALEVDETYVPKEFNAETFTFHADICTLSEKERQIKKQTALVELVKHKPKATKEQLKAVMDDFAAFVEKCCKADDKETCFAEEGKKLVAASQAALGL
Description: (§1) Assays were also performed in 384-well plates, in which the reactions were performed using half the final volume (10 μL) and the concentration of each reagent was halved compared to those used in the 96-well plates.
(§2) Data are reported as mean values±SEM following background subtraction.
(§3) [formula] Top is the maximal response, bottom is minimal response, P is protein concentration, Kd is dissociation constant, X is ligand concentration, and Y is change in Tm. […] Comparison between protein concentrations and comparisons of calculated binding affinities between different compounds was performed using one-way analysis of variance (ANOVA) and a Tukey's post hoc test was performed to evaluate pair-wise differences. Significance between differences in values was defined as p<0.05.
(§4) Possible solvent effects were investigated for PFOA that was solubilized in each of the three solvents.

[2] = target: bovine serum albumin (BSA) (Bos taurus, UniProt P02769); assay: DSF thermal shift assay of bovine serum albumin binding
Sequence of bovine serum albumin (BSA) (P02769 25-607): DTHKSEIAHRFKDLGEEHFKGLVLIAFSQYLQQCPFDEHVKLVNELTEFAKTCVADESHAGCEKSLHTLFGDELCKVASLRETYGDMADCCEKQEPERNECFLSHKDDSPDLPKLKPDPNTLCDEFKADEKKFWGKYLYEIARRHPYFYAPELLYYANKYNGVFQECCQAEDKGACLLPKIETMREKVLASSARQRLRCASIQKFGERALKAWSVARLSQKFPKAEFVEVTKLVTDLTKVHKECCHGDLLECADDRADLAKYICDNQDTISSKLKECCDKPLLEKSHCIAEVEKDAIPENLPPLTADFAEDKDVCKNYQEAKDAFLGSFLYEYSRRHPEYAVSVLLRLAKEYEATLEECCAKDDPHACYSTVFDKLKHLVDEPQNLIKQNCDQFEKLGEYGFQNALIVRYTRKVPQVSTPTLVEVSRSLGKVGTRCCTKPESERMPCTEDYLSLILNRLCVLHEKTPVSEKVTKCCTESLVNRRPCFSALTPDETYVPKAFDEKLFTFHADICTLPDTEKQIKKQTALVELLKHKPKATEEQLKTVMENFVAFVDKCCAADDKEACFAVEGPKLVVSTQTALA
Description: as §1, §2, §3
(§5) Binding affinities for certain PFAS compounds were also determined using PSA, BSA, and RSA.

[3] = From the text: as §4
[4] = decarboxylation (Liberatore et al.); cited from earlier work
[5] = target: Porcine serum albumin (PSA) (Sus scrofa, UniProt P08835); assay: DSF thermal shift assay of porcine serum albumin binding
Sequence of Porcine serum albumin (PSA) (P08835 25-607): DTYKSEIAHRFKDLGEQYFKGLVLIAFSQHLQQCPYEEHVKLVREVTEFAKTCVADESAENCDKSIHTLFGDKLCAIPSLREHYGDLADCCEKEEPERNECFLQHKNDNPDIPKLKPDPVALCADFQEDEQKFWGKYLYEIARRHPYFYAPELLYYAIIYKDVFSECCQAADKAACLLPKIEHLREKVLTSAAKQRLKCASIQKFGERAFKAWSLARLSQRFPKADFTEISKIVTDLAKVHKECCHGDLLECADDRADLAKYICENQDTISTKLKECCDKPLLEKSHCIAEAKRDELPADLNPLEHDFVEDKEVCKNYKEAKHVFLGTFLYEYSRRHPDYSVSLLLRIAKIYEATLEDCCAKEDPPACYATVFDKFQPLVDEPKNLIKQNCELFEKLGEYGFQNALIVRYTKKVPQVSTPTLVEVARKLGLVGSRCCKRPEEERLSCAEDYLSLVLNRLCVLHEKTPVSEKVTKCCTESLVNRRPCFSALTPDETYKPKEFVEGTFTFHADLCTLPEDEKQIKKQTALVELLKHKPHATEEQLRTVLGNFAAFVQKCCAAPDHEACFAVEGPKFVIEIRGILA
Description: as §1, §2, §3, §5

[6] = target: rat serum albumin (RSA) (Rattus norvegicus, UniProt P02770); assay: DSF thermal shift assay of rat serum albumin binding
Sequence of rat serum albumin (RSA) (P02770 25-608): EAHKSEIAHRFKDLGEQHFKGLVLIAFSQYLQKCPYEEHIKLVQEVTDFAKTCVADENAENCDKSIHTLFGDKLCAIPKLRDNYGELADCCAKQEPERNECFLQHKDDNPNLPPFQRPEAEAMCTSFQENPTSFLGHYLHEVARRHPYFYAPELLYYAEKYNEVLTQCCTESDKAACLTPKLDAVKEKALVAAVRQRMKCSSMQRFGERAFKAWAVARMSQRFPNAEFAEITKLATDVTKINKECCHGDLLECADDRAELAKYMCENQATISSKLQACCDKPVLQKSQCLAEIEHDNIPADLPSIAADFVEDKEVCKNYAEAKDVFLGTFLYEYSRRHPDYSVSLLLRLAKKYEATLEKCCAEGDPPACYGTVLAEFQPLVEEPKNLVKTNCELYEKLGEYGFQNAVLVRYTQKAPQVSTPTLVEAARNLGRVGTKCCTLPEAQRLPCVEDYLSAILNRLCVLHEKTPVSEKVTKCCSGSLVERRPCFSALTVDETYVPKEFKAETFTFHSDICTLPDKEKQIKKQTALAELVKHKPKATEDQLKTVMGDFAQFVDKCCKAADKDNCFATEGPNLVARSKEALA
Description: as §1, §2, §3, §5

[7] = PFAS, 4-parameter fit of Δ Tm, mean ± SEM
[8] = PFAS, single site ligand binding model, mean ± SEM
[9] = stock solvent DMSO (50% in HBS), mean ± SEM

Compound: O=C(O)CCC(F)(F)C(F)(F)C(F)(F)F [3:3 FTCA, 2H,2H,3H,3H-Perfluorohexanoic acid]
EC50 [1]: 2060 ± 210 µM
Kd [1]: 1710 ± 190 µM

Compound: OCCC(F)(F)C(F)(F)C(F)(F)C(F)(F)F [4:2 FTOH, 1H,1H,2H,2H-Perfluorohexane-1-ol]
Δ Tm ([1]; PFAS, 0.125 mM HSA, ± SEM): 0 ± 0 °C
bound by HSA [1]: not bound by HSA

Compound: O=S(=O)(O)CCC(F)(F)C(F)(F)C(F)(F)C(F)(F)F [4:2 FTSA, 2H,2H,3H,3H-Perfluorohexansulfonic acid]
Δ Tm ([1]; PFAS, 0.125 mM HSA, ± SEM): 3.49 ± 0.084 °C
EC50 [1, 7]: 1450 ± 140 µM
Kd [1, 8]: 1070 ± 190 µM

Compound: O=C(O)CCC(F)(F)C(F)(F)C(F)(F)C(F)(F)C(F)(F)F [5:3 FTCA, 2H,2H,3H,3H-Perfluorooctanoic acid]
EC50 [1]: 1480 ± 100 µM
Kd [1]: 620 ± 42 µM

Compound: OCCC(F)(F)C(F)(F)C(F)(F)C(F)(F)C(F)(F)C(F)(F)F [6:2 FTOH, 1H,1H,2H,2H-Perfluorooctanol]
Δ Tm ([1]; PFAS, 0.125 mM HSA, ± SEM): 0 ± 0 °C
bound by HSA [1]: not bound by HSA

Compound: O=S(=O)(O)CCC(F)(F)C(F)(F)C(F)(F)C(F)(F)C(F)(F)C(F)(F)F [6:2 FTSA, 2H,2H,3H,3H-Perfluorooctane-1-sulfonate]
Kd ([2]; read-out: Bovine Kd ± SEM, bovine albumin): 930 ± 50 µM
Δ Tm ([1]; PFAS, 0.125 mM HSA, ± SEM): 3.60 ± 0.33 °C
EC50 [1, 7]: 470 ± 120 µM
Kd [1, 8]: 370 ± 140 µM
Kd ([1]; read-out: Human Kd ± SEM, human albumin): 370 ± 140 µM

Compound: O=C(O)CCC(F)(F)C(F)(F)C(F)(F)C(F)(F)C(F)(F)C(F)(F)F [6:3 FTCA, 2,H,2H,3H,3H-Perfluorononanoic acid]
EC50 [1]: 840 ± 86 µM
Kd [1]: 810 ± 92 µM

Compound: O=C(O)CCC(F)(F)C(F)(F)C(F)(F)C(F)(F)C(F)(F)C(F)(F)C(F)(F)C(F)(F)F [8:3 FTCA, 2,H,2H,3H,3H-Perfluoroundecanoate]
aqueous solubility [3]: limited aqueous solubility
EC50 [1]: 1160 ± 170 µM
Kd [1]: 970 ± 68 µM

Compound: FC(OC(F)(F)C(F)(F)C(F)(F)F)C(F)(F)F (stereo not drawn) [E1, 1,1,1,2,2,3,3-Heptafluoro-3-(1,2,2,2-tetrafluoroethoxy)propane]
Δ Tm ([1]; PFAS, 0.125 mM HSA, ± SEM): 7.32 ± 0.042 °C
EC50 [1, 7]: 2340 ± 230 µM
Kd [1, 8]: 1640 ± 140 µM

Compound: O=C(O)C(F)(OC(F)(F)C(F)(F)C(F)(F)F)C(F)(F)F (stereo not drawn) [HFPO-DA, hexafluoropropylene oxide dimer acid]
EC50 ([1]; HFPO-DA in DMSO (1:1 HBS and DMSO, room temperature 4 hours before analysis)): 2340 ± 230 µM
Δ Tm ([1]; PFAS, 0.125 mM HSA, ± SEM): 13.7 ± 0.12 °C
EC50 [1, 7]: 1830 ± 250 µM
Kd [1, 8]: 1600 ± 160 µM
stability in DMSO [4]: rapidly converted to E1

EC50 [1]: 84 ± 21 µM
Kd [1]: 30 ± 8 µM
Compound: CCCCCCCCCCCCCCCC(=O)O [Hexadecanoic Acid, hexadecanoic acid, reference compound]

Compound: O=S(=O)(O)C(F)(F)C(F)(F)OC(F)(C(F)(F)F)C(F)(F)OC(F)C(F)(F)F (stereo not drawn) [Nafion bp2, 7H-perfluoro-4-methyl-3,6-dioxaoctanesulfonic acid]
EC50 [1]: 1900 ± 240 µM
Kd [1]: 1510 ± 150 µM

Compound: O=C(O)C(F)(F)C(F)(F)C(F)(F)F [PFBA, Perfluorobutanoic acid]
Kd [2]: 980 ± 100 µM
Kd [5]: 1500 ± 110 µM
EC50 [1]: 2610 ± 190 µM
Kd [1]: 2570 ± 320 µM
Kd [6]: 1390 ± 110 µM

Compound: O=S(=O)(O)C(F)(F)C(F)(F)C(F)(F)C(F)(F)F [PFBS, Perfluorobutanesulfonic acid]
Kd [2]: 1130 ± 80 µM
Kd [5]: 1550 ± 40 µM
EC50 [1]: 1720 ± 230 µM
Kd [1]: 1650 ± 280 µM
Kd [6]: 930 ± 80 µM

Compound: O=C(O)C(F)(F)C(F)(F)C(F)(F)C(F)(F)C(F)(F)C(F)(F)C(F)(F)C(F)(F)C(F)(F)F [PFDA, perfluorodecanoic acid]
EC50 [1]: 1110 ± 70 µM
Kd [1]: 1190 ± 240 µM

Compound: O=C(O)C(F)(F)C(F)(F)C(F)(F)C(F)(F)C(F)(F)C(F)(F)C(F)(F)C(F)(F)C(F)(F)C(F)(F)C(F)(F)F [PFDoA, perfluorododecanoic acid]
Δ Tm ([1]; PFAS, 0.125 mM HSA, ± SEM): 7.74 ± 0.14 °C
EC50 [1, 7]: 2510 ± 140 µM
Kd [1, 8]: 1890 ± 260 µM

Compound: O=C(O)C(F)(F)C(F)(F)C(F)(F)C(F)(F)C(F)(F)C(F)(F)F [PFHpA, perfluoroheptanoic acid]
Δ Tm ([1]; PFAS, 0.125 mM HSA, ± SEM): 15.3 ± 0.29 °C
EC50 [1, 7]: 680 ± 60 µM
Kd [1, 8]: 440 ± 80 µM

Compound: O=C(O)C(F)(F)C(F)(F)C(F)(F)C(F)(F)C(F)(F)F [PFHxA, Perfluorohexanoic acid]
Kd [2]: 950 ± 110 µM
Kd [5]: 1420 ± 30 µM
EC50 [1]: 1400 ± 110 µM
Kd [1]: 1640 ± 190 µM
Kd [6]: 960 ± 70 µM

Compound: O=S(=O)(O)C(F)(F)C(F)(F)C(F)(F)C(F)(F)C(F)(F)C(F)(F)F [PFHxS, perfluorohexanesulfonic acid]
Δ Tm ([1]; PFAS, 0.125 mM HSA, ± SEM): 11.0 ± 0.17 °C
EC50 [1, 7]: 980 ± 28 µM
Kd [1, 8]: 710 ± 190 µM

Compound: O=C(O)C(F)(F)C(F)(F)C(F)(F)C(F)(F)C(F)(F)C(F)(F)C(F)(F)C(F)(F)F [PFNA, perfluorononanoic acid]
EC50 [1]: 600 ± 92 µM
Kd [1]: 580 ± 87 µM

Compound: O=C(O)C(F)(F)OC(F)(F)C(F)(F)OC(F)(F)C(F)(F)OC(F)(F)F [PFO3DoDA, Perfluoro-3,6,9-trioxadecanoic acid]
Δ Tm ([1]; PFAS, 0.125 mM HSA, ± SEM): 20.6 ± 0.58 °C
EC50 [1, 7]: 1670 ± 190 µM
Kd [1, 8]: 1530 ± 140 µM

Compound: O=C(O)C(F)(F)C(F)(F)C(F)(F)C(F)(F)C(F)(F)C(F)(F)C(F)(F)F [PFOA, perfluorooctanoic acid]
Kd [2]: 750 ± 50 µM
Kd [5]: 320 ± 40 µM
EC50 [1, 7]: 840 ± 43 µM
Δ Tm ([1]; stock solvent DMSO (50% in HBS)): 13.2 °C
EC50 [1, 9]: 850 ± 10 µM
Kd [1, 9]: 840 ± 80 µM
Kd ([1]; stock solvent HEPES-buffered saline (HBS), mean ± SEM): 830 ± 110 µM
Δ Tm ([1]; stock solvent Methanol (30% in HBS)): 13.5 °C
EC50 ([1]; stock solvent Methanol (30% in HBS), mean ± SEM): 780 ± 70 µM

Compound: O=S(=O)(O)C(F)(F)C(F)(F)C(F)(F)C(F)(F)C(F)(F)C(F)(F)C(F)(F)C(F)(F)F [PFOS, perfluorooctanesulfonic acid]
EC50 [1]: 1130 ± 130 µM

Compound: O=C(O)C(F)(F)C(F)(F)C(F)(F)C(F)(F)F [PFPeA, perfluoropentanoic acid]
EC50 [1]: 2140 ± 170 µM
Kd [1]: 2100 ± 230 µM

Compound: O=C(O)C(F)(F)C(F)(F)C(F)(F)C(F)(F)C(F)(F)C(F)(F)C(F)(F)C(F)(F)C(F)(F)C(F)(F)F [PFunDA, Perfluoroundecanoic acid]
EC50 [1]: 1490 ± 24 µM
Kd [1]: 1360 ± 530 µM
